Biological target: σ1 receptor and the μ-opiod receptor
Assay: μ and σ1 dual binding: combined class from the Ki of both radioligand assays
Set-up: species or system human; key to μ and σ1 dual binding: +: Both Ki-μ and Ki-σ1>=500 nM; ++: One Ki<500 nM while the other Ki is >=500 nM; +++: Both Ki-μ and Ki-σ1<500 nM; ++++: Both Ki-μ and Ki-σ1<100 nM
Conditions: transfected HEK-293 membranes (σ1), transfected CHO-K1 cell membranes (μ); for μ and σ1 dual binding: combined class for Ki-μ and Ki-σ1
Procedure, shortened: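 Classes combine both Ki values, split at 500 nM and 100 nM. Human μ-opioid binding used 1 nM [3H]-DAMGO on CHO-K1 membranes (27 °C, 60 min, pH 7.4, naloxone 10 μM for NSB); human σ1 used 5 nM [3H](+)-pentazocine on HEK-293 membranes (37 °C, 120 min, pH 8, haloperidol 10 μM for NSB).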

| SMILES | Ki range for both μ and σ1 (dual-binding class) | μ and σ1 dual binding |
| --- | --- | --- |
| CS(=O)(=O)Nc1cccc(C2CCN(Cc3cn(Cc4ccccc4)cn3)CC2)c1 [Example 183, N-(3-(1-((1-benzyl-1H-imidazol-4-yl)methyl)piperidin-4-yl)phenyl)methanesulfonamide] | < 500 nM | – |
| Oc1cccc(C2CCN(Cc3cn(Cc4ccccc4)cn3)CC2)c1 [Example 184, 3-(1-((1-benzyl-1H-imidazol-4-yl)methyl)piperidin-4-yl)phenol] | < 100 nM | – |
| CS(=O)(=O)Nc1cccc(C2CCN(Cc3cncn3Cc3ccccc3)CC2)c1 [Example 185, N-(3-(1-((1-benzyl-1H-imidazol-5-yl)methyl)piperidin-4-yl)phenyl)methanesulfonamide] | – | ++ |
| CC(C)S(=O)(=O)Nc1cccc(C2CCN(Cc3cn(Cc4ccccn4)cn3)CC2)c1 [Example 186, N-(3-(1-((1-(pyridin-2-ylmethyl)-1H-imidazol-4-yl)methyl)piperidin-4-yl)phenyl)propane-2-sulfonamide] | – | ++ |
| CC(C)S(=O)(=O)Nc1cccc(C2CCN(Cc3cncn3Cc3ccccn3)CC2)c1 [Example 187, N-(3-(1-((1-(pyridin-2-ylmethyl)-1H-imidazol-5-yl)methyl)piperidin-4-yl)phenyl)propane-2-sulfonamide] | – | ++ |
| Oc1cccc(C2CCN(Cc3cn(Cc4ccccn4)cn3)CC2)c1 [Example 188, 3-(1-((1-(pyridin-2-ylmethyl)-1H-imidazol-4-yl)methyl)piperidin-4-yl)phenol] | – | ++ |
| Oc1cccc(C2CCN(Cc3cn(Cc4ncccc4F)cn3)CC2)c1 [Example 189, 3-(1-((1-((3-fluoropyridin-2-yl)methyl)-1H-imidazol-4-yl)methyl)piperidin-4-yl)phenol] | – | ++ |
| CCC(=O)Nc1cccc(C2CCN(Cc3cn(-c4ccccc4)nn3)CC2)n1 [Example 190, N-(6-(1-((1-phenyl-1H-1,2,3-triazol-4-yl)methyl)piperidin-4-yl)pyridin-2-yl)propionamide] | < 500 nM | – |
| CS(=O)(=O)Nc1cccc(C2CCN(Cc3cn(-c4ccccc4)nn3)CC2)n1 [Example 191, N-(6-(1-((1-phenyl-1H-1,2,3-triazol-4-yl)methyl)piperidin-4-yl)pyridin-2-yl)methanesulfonamide] | – | ++ |
| CCC(=O)Nc1ccnc(C2CCN(Cc3cn(-c4ccccc4)nn3)CC2)c1 [Example 192, N-(2-(1-((1-phenyl-1H-1,2,3-triazol-4-yl)methyl)piperidin-4-yl)pyridin-4-yl)propionamide] | – | ++ |
| CS(=O)(=O)Nc1ccnc(C2CCN(Cc3cn(-c4ccccc4)nn3)CC2)c1 [Example 193, N-(2-(1-((1-phenyl-1H-1,2,3-triazol-4-yl)methyl)piperidin-4-yl)pyridin-4-yl)methanesulfonamide] | ≥ 500 nM | – |
| CS(=O)(=O)Nc1cncc(C2CCN(Cc3cn(-c4ccccc4)nn3)CC2)c1 [Example 194, N-(5-(1-((1-phenyl-1H-1,2,3-triazol-4-yl)methyl)piperidin-4-yl)pyridin-3-yl)methanesulfonamide] | ≥ 500 nM | – |
| CCC(=O)Nc1cncc(C2CCN(Cc3cn(-c4ccccc4)nn3)CC2)c1 [Example 195, N-(5-(1-((1-phenyl-1H-1,2,3-triazol-4-yl)methyl)piperidin-4-yl)pyridin-3-yl)propionamide] | ≥ 500 nM | – |
| CCC(=O)Nc1cc(C2CCN(Cc3cn(-c4ccccc4)nn3)CC2)ccn1 [Example 196, N-(4-(1-((1-phenyl-1H-1,2,3-triazol-4-yl)methyl)piperidin-4-yl)pyridin-2-yl)propionamide] | ≥ 500 nM | – |
| CS(=O)(=O)Nc1cc(C2CCN(Cc3cn(-c4ccccc4)nn3)CC2)ccn1 [Example 197, N-(4-(1-((1-phenyl-1H-1,2,3-triazol-4-yl)methyl)piperidin-4-yl)pyridin-2-yl)methanesulfonamide] | ≥ 500 nM | – |
| Oc1cccc(C2CCN(Cc3cn(-c4ccccc4)nn3)CC2)n1 [Example 198, 6-(1-((1-phenyl-1H-1,2,3-triazol-4-yl)methyl)piperidin-4-yl)pyridin-2-ol] | ≥ 500 nM | – |
| CCC(=O)Nc1cccc(C2CCN(Cc3cn(Cc4ccccc4)nn3)CC2)n1 [Example 199, N-(6-(1-((1-benzyl-1H-1,2,3-triazol-4-yl)methyl)piperidin-4-yl)pyridin-2-yl)propionamide] | – | ++ |
| CS(=O)(=O)Nc1cccc(C2CCN(Cc3cc(-c4ccccc4)no3)CC2)n1 [Example 200, N-(6-(1-((3-phenylisoxazol-5-yl)methyl)piperidin-4-yl)pyridin-2-yl)methanesulfonamide] | < 500 nM | – |

| SMILES | Ki range for both μ and σ1 (dual-binding class) | μ and σ1 dual binding |
| --- | --- | --- |
| CCC(=O)Nc1cccc(C2CCN(Cc3cc(-c4ccccc4)no3)CC2)n1 [Example 201, N-(6-(1-((3-phenylisoxazol-5-yl)methyl)piperidin-4-yl)pyridin-2-yl)propionamide] | < 500 nM | – |
| CCC(=O)Nc1cccc(C2CCN(Cc3cnn(-c4ccccc4)c3)CC2)n1 [Example 202, N-(6-(1-((1-phenyl-1H-pyrazol-4-yl)methyl)piperidin-4-yl)pyridin-2-yl)propionamide] | < 100 nM | – |
| CS(=O)(=O)Nc1cccc(C2CCN(Cc3cnn(-c4ccccc4)c3)CC2)n1 [Example 203, N-(6-(1-((1-phenyl-1H-pyrazol-4-yl)methyl)piperidin-4-yl)pyridin-2-yl)methanesulfonamide] | < 500 nM | – |
| CCC(=O)Nc1cccc(C2CCN(Cc3cn([C@@H]4c5ccccc5C[C@H]4O)nn3)CC2)n1 [Example 204, N-(6-(1-((1-((1R,2R)-2-hydroxy-2,3-dihydro-1H-inden-1-yl)-1H-1,2,3-triazol-4-yl)methyl)piperidin-4-yl)pyridin-2-yl)propionamide] | – | ++ |
| Oc1ncccc1C1CCN(Cc2cn(-c3ccccc3)nn2)CC1 [Example 205, 3-(1-((1-phenyl-1H-1,2,3-triazol-4-yl)methyl)piperidin-4-yl)pyridin-2-ol] | – | ++ |
| CC(C)S(=O)(=O)Nc1cccc(C2CCN(Cc3cn(Cc4ccccn4)nn3)CC2)n1 [Example 206, N-(6-(1-((1-(pyridin-2-ylmethyl)-1H-1,2,3-triazol-4-yl)methyl)piperidin-4-yl)pyridin-2-yl)propane-2-sulfonamide] | < 500 nM | – |
| CC(C)S(=O)(=O)Nc1cccc(C2CCN(Cc3cn(-c4ccccc4)nn3)CC2)n1 [Example 207, N-(6-(1-((1-phenyl-1H-1,2,3-triazol-4-yl)methyl)piperidin-4-yl)pyridin-2-yl)propane-2-sulfonamide] | < 500 nM | – |
| CC(C)S(=O)(=O)Nc1cccc(C2CCN(Cc3cn(-c4ccccc4F)nn3)CC2)n1 [Example 208, N-(6-(1-((1-(2-fluorophenyl)-1H-1,2,3-triazol-4-yl)methyl)piperidin-4-yl)pyridin-2-yl)propane-2-sulfonamide] | < 500 nM | – |
| CC(C)S(=O)(=O)Nc1cccc(C2CCN(Cc3cn(Cc4ncccc4F)nn3)CC2)n1 [Example 209, N-(6-(1-((1-((3-fluoropyridin-2-yl)methyl)-1H-1,2,3-triazol-4-yl)methyl)piperidin-4-yl)pyridin-2-yl)propane-2-sulfonamide] | – | ++ |
| CC(C)S(=O)(=O)Nc1cccc(C2CCN(Cc3cn(Cc4ccc(F)cn4)nn3)CC2)n1 [Example 210, N-(6-(1-((1-((5-fluoropyridin-2-yl)methyl)-1H-1,2,3-triazol-4-yl)methyl)piperidin-4-yl)pyridin-2-yl)propane-2-sulfonamide] | – | ++ |
| CCC(=O)Nc1cccc(C2CCN(Cc3cn(-c4ccccc4F)nn3)CC2)n1 [Example 211, N-(6-(1-((1-(2-fluorophenyl)-1H-1,2,3-triazol-4-yl)methyl)piperidin-4-yl)pyridin-2-yl)propionamide] | – | ++ |
| CC(C)S(=O)(=O)Nc1cccc(C2CCN(Cc3cn(Cc4ncccc4Cl)nn3)CC2)n1 [Example 212, N-(6-(1-((1-((3-chloropyridin-2-yl)methyl)-1H-1,2,3-triazol-4-yl)methyl)piperidin-4-yl)pyridin-2-yl)propane-2-sulfonamide] | – | ++ |
| CC(C)S(=O)(=O)Nc1cccc(C2CCN(Cc3cn(Cc4ccc(Cl)cn4)nn3)CC2)n1 [Example 213, N-(6-(1-((1-((5-chloropyridin-2-yl)methyl)-1H-1,2,3-triazol-4-yl)methyl)piperidin-4-yl)pyridin-2-yl)propane-2-sulfonamide] | – | ++ |
| Oc1cccc(C2CCN(Cc3cn(Cc4ccc(F)cn4)cn3)CC2)c1 [Example 215, 3-(1-((1-((5-fluoropyridin-2-yl)methyl)-1H-imidazol-4-yl)methyl)piperidin-4-yl)phenol] | < 500 nM | – |
| Oc1cccc(C2CCN(Cc3cn(-c4ncccc4O)nn3)CC2)c1 [Example 216, 2-(4-((4-(3-hydroxyphenyl)piperidin-1-yl)methyl)-1H-1,2,3-triazol-1-yl)pyridin-3-ol] | – | ++ |
| COc1ccc(-n2cc(CN3CCC(c4cccc(O)c4)CC3)nn2)nc1 [Example 217, 3-(1-((1-(5-methoxypyridin-2-yl)-1H-1,2,3-triazol-4-yl)methyl)piperidin-4-yl)phenol] | < 500 nM | – |
| Oc1cccc(C2CCN(Cc3cn(-c4ncccc4C(F)(F)F)nn3)CC2)c1 [Example 218, 3-(1-((1-(3-(trifluoromethyl)pyridin-2-yl)-1H-1,2,3-triazol-4-yl)methyl)piperidin-4-yl)phenol] | < 500 nM | – |

— US9981942B2, “Piperidine derivatives having multimodal activity against pain” (LABORATORIOS DEL DR. ESTEVE S.A., priority 2013, dated 2018)
